The data set can be described thus: in vitro. The conditions noted are these: human, hela cells, % viability.

Each structure is given as a SMILES string.

As to `CC(=O)Oc1c(C)cc(CN(C)C(C)c2ccncc2)cc1C` (stereo not drawn) [CBK306915], the viability at 28.5 h, 10 µM is 73.2%. The value for `CC(C)(C)C(=O)N1CCN(Cc2ccc3c(c2)OCO3)CC1` [CBK074842] was 88.8%; that for `CC1CCc2c(sc(NC(=O)COc3ccccc3)c2C(=O)Nc2ccccc2Cl)C1` (stereo not drawn) [CBK263044] was 101%; that for `COc1ccc(CCN2CN=C(SCc3ccc(Cl)cc3)NC2)cc1OC` [CBK074665C] was 95.3%. As to `COc1cc(OC)cc(C(=O)N[C@@H]2CC[C@@]3(c4ccc(OC)c(OC)c4)CCN(C)[C@H]3C2)c1` [CBK074242T], the viability at 28.5 h, 10 µM came to 115%.

In the case of `COC(=O)c1sccc1NC(=O)COc1ccc([N+](=O)[O-])cc1Cl` [CBK066828], the viability at 28.5 h, 10 µM is 109%. In the case of `CN1CCC[C@H]1C(=O)Nc1cccc2cc[nH]c12` [CBK160098], the viability at 28.5 h, 10 µM amounted to 104%. Turning to `O=C(O)c1cccc(NS(=O)(=O)c2cccnc2)c1` [CBK155700], the viability at 28.5 h, 10 µM was found to be 101%. The value for `COc1cc(CN2CCCN(C)CC2)c([N+](=O)[O-])cc1OC` [CBK261539] was 90.2%. As for `COc1cc(CNc2cc(-c3ccc(N4CCOCC4)cc3)ncn2)cc(OC)c1OC` [CBK091174], the viability at 28.5 h, 10 µM amounted to 93.9%.

With `Cc1ccc(S(=O)(=O)N(CC(=O)N/N=C\c2ccc3c(c2)OCO3)c2cccc3cccnc23)cc1` [CBK262478], the viability at 28.5 h, 10 µM turned out to be 101%. Regarding `COc1ccc(C(C)C)cc1-c1cncc(NCc2ccc3c(c2)OCO3)n1` [CBK065348], the viability at 28.5 h, 10 µM was determined as 95.2%.

With `CC(C)(C)c1cc(CNCCS(=O)(=O)O)c(O)c(C(C)(C)C)c1` [CBK261098], the viability at 28.5 h, 10 µM amounted to 107%. On to `Cc1cc(Cn2nnc(-c3ccc(Br)cc3)n2)cc(C)c1O` [CBK291129], for which the viability at 28.5 h, 10 µM is 119%. Turning to `Cc1noc(C)c1NC(=O)c1ccno1` [CBK200394], the viability at 28.5 h, 10 µM amounted to 87%.

For the compound `Cc1ccccc1C(=O)Nc1cccc(-c2nnc(SCC(=O)c3ccc(Cl)cc3)n2C)c1` [CBK264053], the viability at 28.5 h, 10 µM is 89.3%. With `COc1ccc(F)c(CN(CC(C)(C)CN)C(=O)Nc2ccccc2C(F)(F)F)c1` [CBK002412C], the viability at 28.5 h, 10 µM came out at 90.1%. The value for `CCN(CC)CCN1CCN(c2cncc(-c3cccc(/C=C/C(=O)O)c3)n2)CC1` [CBK066097] was 96.6%. On to `C(=C\c1ccccc1)/CSc1nnc(-c2cnccn2)n1Cc1ccco1` [CBK267587], for which the viability at 28.5 h, 10 µM was determined as 119%. The value for `O=C(O)c1ccc(N2C(=O)CC(N3CCN(CCO)CC3)C2=O)cc1` (stereo not drawn) [CBK271638] was 88.9%; that for `CSc1ccc(-c2nc(NC(=O)C(C)C)cc3cccnc23)cc1` [CBK081262] was 100%; that for `O=C(CC12CC3CC(CC(C3)C1)C2)NCC(=O)Nc1ccc2[nH]c(=O)[nH]c2c1` [CBK295349] was 85.3%.

For `CCOC(=O)c1c(NC(=O)CSc2nnc[nH]2)sc2c1CCCC2` [CBK265999], the viability at 28.5 h, 10 µM worked out at 93.1%. `CSc1ccccc1CNC(=O)c1cc(Br)cnc1N(C)C(C)=O` [CBK076478]: the viability at 28.5 h, 10 µM amounted to 106%.

Take `CCCn1nc(C)c(CN(C)Cc2n[nH]c3c2CCCC3)c1C` [CBK282600]: the viability at 28.5 h, 10 µM turned out to be 95.4%.

Take `Cc1ccc(C(=O)N(C)CCN(C)C)c(NCc2cccnc2)n1` [CBK076348]: the viability at 28.5 h, 10 µM was determined as 91.5%. The value for `O=C(O)c1ccc(-c2n[nH]c(=O)c3ccccc23)cc1` [CBK287148] was 108%. Turning to `COc1ccc(C2(C(=O)N[C@H]3CC[C@H](O)CC3)CC2)cc1` [CBK149840], the viability at 28.5 h, 10 µM turned out to be 111%. Consider `O=C1COc2ccccc2CCCCC2(CCCN(C(=O)CN3CCCC3=O)C2)CN1` (stereo not drawn) [CBK291992], for which the viability at 28.5 h, 10 µM was 105%. To `Cn1cc(CNC(=O)Nc2cccc(CN3CCCCC3=O)c2)cn1` [CBK305062] belongs 91.4%; to `O=C(c1ncccc1O)N1CC(O)CC1c1cc(F)ccc1F` (stereo not drawn) [CBK306452], 97.9%. To `O=C(Cc1ccccc1[N+](=O)[O-])Nc1ccc(S(=O)(=O)N2CCCC2)cc1` [CBK265292] belongs 87.1%; to `COc1cc(CNc2cc(-c3ccsc3)ncn2)cc(OC)c1OC` [CBK037794], 92%. For `CN(CCOc1ccccc1)c1cc(C2CC(N)C2)nc(N)n1` (stereo not drawn) [CBK306849], the viability at 28.5 h, 10 µM came out at 97%. With `COc1ccc2[nH]c3c(c2c1)CCN[C@]31CCN(CCOc2ccc(F)cc2)C1` [CBK089876T], the viability at 28.5 h, 10 µM is 73.6%. For the compound `CCN(CC)C(=O)CN(CCc1ccc(OC)c(OC)c1)C(=O)NCCc1c[nH]c2ccccc12` [CBK158741], the viability at 28.5 h, 10 µM was found to be 91.1%. Regarding `O=C(c1ccc2c(c1)N(Cc1ccc(F)cc1)C(=O)CO2)c1cccs1` [CBK286410], the viability at 28.5 h, 10 µM came to 92.3%.

With `O=C(O)C(c1c[nH]c2cc(F)ccc12)N1CCN(c2ccccc2)CC1` (stereo not drawn) [CBK286675], the viability at 28.5 h, 10 µM came out at 102%. The value for `CCOC(=O)c1cnc2ccc(Cl)cc2c1N1CCOCC1` [CBK307627] was 99.2%; that for `O=C(NCCc1c[nH]c2ccccc12)C(=O)Nc1ccncc1` [CBK287754] was 101%; that for `Cc1nc(-c2ccc(CCNC(=O)c3cc(O)nc4ccccc34)s2)cs1` [CBK297720] was 94.2%. Turning to `O=C1c2ccccc2S(=O)(=O)N1CC(O)Cn1ccc2ccccc21` (stereo not drawn) [CBK267905], the viability at 28.5 h, 10 µM is 97.6%. In the case of `Cc1ccc(-c2c(N3C(=O)c4cccnc4C3=O)n[nH]c2C)cc1` [CBK288199], the viability at 28.5 h, 10 µM stood at 101%. The value for `Cc1cccn2c(=O)c(/C=C3\SC(=S)N(CCCC(=O)O)C3=O)c(N3CCC(C)CC3)nc12` [CBK264793] was 107%; that for `CCOC(=O)N1CCC(NC(=O)CCC(=O)O)CC1` [CBK286569] was 91.5%. As to `O=c1cc(NCc2ccncc2)c2ccccc2o1` [CBK017259], the viability at 28.5 h, 10 µM amounted to 93.5%. The value for `NS(=O)(=O)c1ccc(CCNC(=O)C2c3ccccc3Oc3ccccc32)cc1` [CBK264389] was 104%. The value for `COc1ccc(C(C)NC(=O)C2CCCCC2C(=O)O)cc1OC` (stereo not drawn) [CBK270309] was 91.1%; that for `COC(=O)c1ccccc1NC(=O)CSc1nnnn1C` [CBK267441] was 90%.

As for `O=C1COc2ccccc2C/C=C/C[C@H]2CN(C(=O)c3noc4c3CCCC4)CC[C@H]2N1` [CBK292099], the viability at 28.5 h, 10 µM is 116%. As for `c1cncc(-c2nccnc2NCC2CC2)c1` [CBK037310], the viability at 28.5 h, 10 µM came to 80.9%. The value for `CCC(C)(C)c1ccc(S(=O)(=O)N2CCCN(Cc3c(-c4ccccc4)noc3C)CC2)cc1` [CBK062888] was 92.8%. The value for `CC(=O)Oc1ccc(C(=O)NCc2ccc3c(c2)OCO3)cc1` [CBK264372] was 91.2%. With `CCN(C(=O)Cn1cccc(OC)c1=O)C1CCOC(C)(C)C1` (stereo not drawn) [CBK306879], the viability at 28.5 h, 10 µM is 86.5%. To `CCOc1ccccc1N1CCN(C(C(=O)O)c2c[nH]c3ccc(CO)cc23)CC1` (stereo not drawn) [CBK286816] belongs 90.1%; to `CCc1cc(NCCc2ccc(=O)[nH]c2)nc(-c2ccc(Br)cc2)n1` [CBK144610C], 93.3%.

Take `CCOC(=O)C(NS(=O)(=O)c1ccc(NC(C)=O)c(Cl)c1)C(=O)OCC` [CBK043996]: the viability at 28.5 h, 10 µM was 96.2%. For the compound `Cc1ncsc1C(=O)N1CCC[C@H](C(=O)c2cccs2)C1` [CBK284260], the viability at 28.5 h, 10 µM was found to be 80.2%. To `Cc1ccc(-c2ncc(OCCN(C(C)C)C(C)C)nc2N)cc1C` [CBK145150] belongs 85.9%; to `COc1ccc(S(=O)(=O)n2ccn(-c3ccc(Oc4ccccc4)cc3)c2=O)cc1OC` [CBK106649], 86.9%. To `O=C(c1ccco1)N1CCN(c2cc(-c3cccnc3)ncn2)CC1` [CBK037833] belongs 101%; to `Cc1ccc(S(=O)(=O)/N=C(/NCc2ccc(Cl)cc2)Nc2nc(C)cc(C)n2)cc1` [CBK263785], 102%.

Regarding `N#Cc1ccc(CNC2(Cc3cc(C(=O)N4CCCCC4)on3)COC2)cc1` [CBK289672], the viability at 28.5 h, 10 µM turned out to be 87%.

For `Cn1ccnc1CN1C(=O)CO[C@H]2CN(c3ncccn3)C[C@H]21` [CBK289704], the viability at 28.5 h, 10 µM worked out at 98.3%. For the compound `O=C(c1ncoc1-c1ccc(F)cc1)N1CCOCC1` [CBK282362], the viability at 28.5 h, 10 µM came out at 87.1%. Consider `CC(C)(C)C(=O)NC(=S)Nc1ccc(Cc2ccncc2)cc1` [CBK269717], for which the viability at 28.5 h, 10 µM was 91.5%. The value for `Cn1c(=O)cc(NCCCCCC(=O)O)[nH]c1=O` [CBK286574] was 88.3%; that for `COCc1cccc(-c2ncc(OCC3COc4ccccc4O3)nc2N)c1` (stereo not drawn) [CBK145113] was 93.1%; that for `Cc1ccc(-c2noc([C@@H]3Cc4[nH]cnc4CN3C(=O)CCC(=O)O)n2)cc1` [CBK288958] was 96.3%. For `O=C(c1ccccc1)c1ccccc1OCCO` [CBK000728], the viability at 28.5 h, 10 µM worked out at 116%. Consider `Cc1ccc(NC(=O)N(Cc2ccc(-c3ccccc3)cc2)CC(C)(C)CN)cc1[N+](=O)[O-]` [CBK002439C], for which the viability at 28.5 h, 10 µM was determined as 83.7%. As for `O=C(O)Cc1sc(-c2ccc(Cl)cc2)nc1O` [CBK067730], the viability at 28.5 h, 10 µM is 93.1%. The value for `COc1cccc(NCc2nnc(SCC(=O)O)n2C2CCCCC2)c1` [CBK297499] was 95.6%; that for `Cc1nc(C(=O)N2CCn3nc(C(O)Cc4ccccc4)cc3C2)cs1` (stereo not drawn) [CBK307214] was 98.5%.

Consider `Cc1noc(C)c1C(=O)Nc1ccc(S(=O)(=O)NCCc2ccccc2)cc1` [CBK268183], for which the viability at 28.5 h, 10 µM is 92.8%. The value for `CC(C)Cn1c(=O)c2c(nc3n2CCS3)n(C)c1=O` [CBK307109] was 98.1%; that for `CN(Cc1ccccc1)c1nc2ccccn2c(=O)c1/C=C1/SC(=S)N(CCc2ccccc2)C1=O` [CBK263839] was 112%; that for `O=[N+]([O-])c1cc([N+](=O)[O-])c2cccnc2c1NNc1nncc2ccccc12` [CBK110409] was 85.1%.

Broadly, the viability is a read-out of living cells in per cent, often relative to untreated cells.

(Values after paper PMC12040169 (PLOS Biology, 2025).)
